Measured values as given in patent US10376520B2, “Methods for the treatment of cardiovascular disorders” (Galapagos NV, priority 2015, dated 2019).

Tested on: RA patients
Experiment: Atherogenic index, Study 2 (RA patients, monotherapy)
Type: in vivo, human
Method: As used herein, the term ‘atherogenic index’ refers to
Double-blind, placebo-controlled, monotherapy study in subjects with moderately to severely active RA who have an inadequate response to methotrexate (MTX) (oral or parenteral).
Twelve weeks of treatment with Compound 1 (dosed as a [Compound 1:HCl:3H2O]) at 50 mg, 100 mg, or 200 mg q.d.; or placebo. At Week 12, all subjects on placebo and the subjects on the 50 mg dose who have not achieved 20% improvement in swollen joint count (SJC66) and tender joint count (TJC68) will be assigned to 100 mg q.d. in a blinded fashion and will continue treatment until Week 24. Subjects in the other groups will maintain their randomized treatment until Week 24.
The atherogenic index has been identified to be a good predictor of cardiovascular disorders risks and is calculated as follows: […]

[1] = Placebo switching to 100 mg q.d., week 16
[2] = Placebo switching to 100 mg q.d., week 20
[3] = Placebo switching to 100 mg q.d., week 24

SMILES: O=C(Nc1nc2cccc(-c3ccc(CN4CCS(=O)(=O)CC4)cc3)n2n1)C1CC1 [Compound 1, cyclopropanecarboxylic acid {5-[4-(1,1-dioxo-thiomorpholin-4-ylmethyl)-phenyl]-[1,2,4]triazolo[1,5-a]pyridin-2yl}-amide]
- Atherogenic index Median CFB - 12 weeks results (100 mg q.d., week 4): -0.10 mmol/L
- Atherogenic index Median CFB - 24 weeks results (100 mg q.d., week 4): -0.10 mmol/L
- Atherogenic index Median percentage CFB - 12 weeks results (100 mg q.d., week 4): −3.65%
- Atherogenic index Median percentage CFB - 24 weeks results (100 mg q.d., week 4): −3.65%
- Atherogenic index Mean CFB - 12 weeks results (100 mg q.d., week 8): -0.13 mmol/L
- Atherogenic index Mean percentage CFB - 12 weeks results (100 mg q.d., week 8): −3.37%
- Atherogenic index Mean percentage CFB - 24 weeks results (100 mg q.d., week 8): −3.37%
- Atherogenic index Median CFB - 12 weeks results (100 mg q.d., week 8): -0.10 mmol/L
- Atherogenic index Median CFB - 24 weeks results (100 mg q.d., week 8): -0.10 mmol/L
- Atherogenic index Median percentage CFB - 24 weeks results (100 mg q.d., week 8): −1.45%
- Atherogenic index Mean CFB - 12 weeks results (100 mg q.d., week 12): -0.07 mmol/L
- Atherogenic index Mean percentage CFB - 24 weeks results (100 mg q.d., week 12): −1.37%
- Atherogenic index Median CFB - 12 weeks results (100 mg q.d., week 12): -0.10 mmol/L
- Atherogenic index Median CFB - 24 weeks results (100 mg q.d., week 12): -0.10 mmol/L
- Atherogenic index Median percentage CFB - 12 weeks results (100 mg q.d., week 12): −2.78%
- Atherogenic index Median percentage CFB - 24 weeks results (100 mg q.d., week 12): −2.78%
- Atherogenic index Mean percentage CFB - 24 weeks results (100 mg q.d., week 16): −4.43%
- Atherogenic index Median CFB - 24 weeks results (100 mg q.d., week 16): -0.20 mmol/L
- Atherogenic index Median percentage CFB - 24 weeks results (100 mg q.d., week 16): −4.76%
- Atherogenic index Mean percentage CFB - 24 weeks results (100 mg q.d., week 20): −2.50%
- Atherogenic index Median CFB - 24 weeks results (100 mg q.d., week 20): 0.00 mmol/L
- Atherogenic index Median percentage CFB - 24 weeks results (100 mg q.d., week 20): 0.00%
- Atherogenic index Mean percentage CFB - 24 weeks results (100 mg q.d., week 24): −0.41%
- Atherogenic index Median CFB - 24 weeks results (100 mg q.d., week 24): 0.00 mmol/L
- Atherogenic index Median percentage CFB - 24 weeks results (100 mg q.d., week 24): 0.00%
- Atherogenic index Mean CFB - 12 weeks results (200 mg q.d., week 1): 0.15 mmol/L
- Atherogenic index Mean percentage CFB - 12 weeks results (200 mg q.d., week 1): 4.43%
- Atherogenic index Mean percentage CFB - 24 weeks results (200 mg q.d., week 1): 4.43%
- Atherogenic index Median CFB - 12 weeks results (200 mg q.d., week 1): 0.10 mmol/L
- Atherogenic index Median CFB - 24 weeks results (200 mg q.d., week 1): 0.10 mmol/L
- Atherogenic index Median percentage CFB - 12 weeks results (200 mg q.d., week 1): 1.96%
- Atherogenic index Median percentage CFB - 24 weeks results (200 mg q.d., week 1): 1.96%
- Atherogenic index Mean CFB - 12 weeks results (200 mg q.d., week 2): -0.09 mmol/L
- Atherogenic index Mean percentage CFB - 12 weeks results (200 mg q.d., week 2): −2.14%
- Atherogenic index Mean percentage CFB - 24 weeks results (200 mg q.d., week 2): −2.14%
- Atherogenic index Median CFB - 12 weeks results (200 mg q.d., week 2): 0.00 mmol/L
- Atherogenic index Median CFB - 24 weeks results (200 mg q.d., week 2): 0.00 mmol/L
- Atherogenic index Median percentage CFB - 12 weeks results (200 mg q.d., week 2): 0.00%
- Atherogenic index Median percentage CFB - 24 weeks results (200 mg q.d., week 2): 0.00%
- Atherogenic index Mean CFB - 12 weeks results (200 mg q.d., week 4): -0.18 mmol/L
- Atherogenic index Mean percentage CFB - 12 weeks results (200 mg q.d., week 4): −3.89%
- Atherogenic index Mean percentage CFB - 24 weeks results (200 mg q.d., week 4): −3.89%
- Atherogenic index Median CFB - 12 weeks results (200 mg q.d., week 4): -0.10 mmol/L
- Atherogenic index Median CFB - 24 weeks results (200 mg q.d., week 4): -0.10 mmol/L
- Atherogenic index Median percentage CFB - 12 weeks results (200 mg q.d., week 4): −3.65%
- Atherogenic index Median percentage CFB - 24 weeks results (200 mg q.d., week 4): −3.65%
- Atherogenic index Mean CFB - 12 weeks results (200 mg q.d., week 8): -0.16 mmol/L
- Atherogenic index Mean percentage CFB - 12 weeks results (200 mg q.d., week 8): −3.33%
- Atherogenic index Mean percentage CFB - 24 weeks results (200 mg q.d., week 8): −3.33%
- Atherogenic index Median CFB - 12 weeks results (200 mg q.d., week 8): -0.10 mmol/L
- Atherogenic index Median CFB - 24 weeks results (200 mg q.d., week 8): -0.10 mmol/L
- Atherogenic index Median percentage CFB - 12 weeks results (200 mg q.d., week 8): −3.33%
- Atherogenic index Median percentage CFB - 24 weeks results (200 mg q.d., week 8): −3.33%
- Atherogenic index Mean CFB - 12 weeks results (200 mg q.d., week 12): -0.04 mmol/L
- Atherogenic index Mean percentage CFB - 12 weeks results (200 mg q.d., week 12): 0.54%
- Atherogenic index Mean percentage CFB - 24 weeks results (200 mg q.d., week 12): 0.54%
- Atherogenic index Median CFB - 12 weeks results (200 mg q.d., week 12): 0.00 mmol/L
- Atherogenic index Median CFB - 24 weeks results (200 mg q.d., week 12): 0.00 mmol/L
- Atherogenic index Median percentage CFB - 12 weeks results (200 mg q.d., week 12): 0.00%
- Atherogenic index Median percentage CFB - 24 weeks results (200 mg q.d., week 12): 0.00%
- Atherogenic index Mean percentage CFB - 24 weeks results (200 mg q.d., week 16): 0.42%
- Atherogenic index Median CFB - 24 weeks results (200 mg q.d., week 16): 0.00 mmol/L
- Atherogenic index Median percentage CFB - 24 weeks results (200 mg q.d., week 16): 0.00%
- Atherogenic index Mean percentage CFB - 24 weeks results (200 mg q.d., week 20): −1.40%
- Atherogenic index Median CFB - 24 weeks results (200 mg q.d., week 20): -0.20 mmol/L
- Atherogenic index Median percentage CFB - 24 weeks results (200 mg q.d., week 20): −3.77%
- Atherogenic index Mean percentage CFB - 24 weeks results (200 mg q.d., week 24): 0.92%
- Atherogenic index Median CFB - 24 weeks results (200 mg q.d., week 24): -0.10 mmol/L
- Atherogenic index Median percentage CFB - 24 weeks results (200 mg q.d., week 24): −2.58%
- Atherogenic index Mean percentage CFB - 24 weeks results [1]: −6.56%
- Atherogenic index Median CFB - 24 weeks results [1]: -0.20 mmol/L
- Atherogenic index Median percentage CFB - 24 weeks results [1]: −5.40%
- Atherogenic index Mean percentage CFB - 24 weeks results [2]: −5.24%
- Atherogenic index Median CFB - 24 weeks results [2]: -0.30 mmol/L
- Atherogenic index Median percentage CFB - 24 weeks results [2]: −7.87%
- Atherogenic index Mean percentage CFB - 24 weeks results [3]: −3.22%
- Atherogenic index Median CFB - 24 weeks results [3]: -0.10 mmol/L
- Atherogenic index Median percentage CFB - 24 weeks results [3]: −3.57%
